Test results from US11883398B2, “Dipeptidylpeptidase 4 inhibition enhances lymphocyte trafficking, improving both naturally occurring tumor immunity and immunotherapy” (INSTITUT PASTEUR, priority 2015, dated 2024).

Experiments:
[1] = tested on: B16F10 tumors; assay: Flow cytometry of leukocytes infiltrating B16F10 tumors; assay type: in vivo, mouse
Procedure: B16F10 and M04 (Ovalbumin-expressing B16F10 cells, gift from C. Reis e Sousa) tumor cells were cultured in DMEM (Gibco) supplemented with 10% FCS (PAA), 0.1 mM non-essential amino acids, 1 mM sodium pyruvate, 10 mM Hepes, 70 μM beta-mercaptoethanol and 23 μg/ml gentamycin (all from Gibco). CT26 colon carcinoma cells were cultured in RPMI (Gibco) supplemented as described for DMEM. Cells for injections were passaged 1-2 times after thawing, before use. WT and genetically modified mice were subcutaneously injected with 2×10^5 B16 or 5×10^5 CT26 cells in the shaved right flank. When indicated, mice received an intra-tumoral injection of 1 μg of recombinant mCXCL10, 5 μg CpG-A in DOPTAP or vehicle control. For blocking of chemokine and chemokine receptors, WT mice were intraperitoneally injected with 100 μg of hamster a-mCXCR3 (clone CXCR3-173, BioLegend), 100 μg of hamster α-mCCR5 (clone HM-CCR5, BioLegend), 50 μg of rat anti-mCXCL10 (clone 134013, R&D systems) and 20 μg of rat-α-mCXCR4 (clone 2B11/CXCR4, BD Biosciences) or with respective isotype antibodies (hamster IgG (clone HTK888, BioLegend, used as control for mCXCR3 and mCCR5 blockage); rat IgG2a (clone 54447, R&D systems, used as control for mCXCL10 blockade) and rat IgG2b (clone A95-1, BD Biosciences, used as control for mCXCR4 blockade). Intraperitoneal injection was done one day before and 4, 8 and 12 days after tumor cell injection. For CXCL10 neutralization, antibodies were injected on day 2, 5, 8 and 11 after tumor cell injection. For immunotherapy protocols, mice were intraperitoneally injected with 100 μg of mouse α-CTLA-4 (clone 9D9, Bioxcell), 200 μg of PD1 (clone RMP1-14, Bioxcell), a combination of 100 μg of α-CTLA-4+200 μg of a-PD1 or control isotypes (100 μg […] and 200 μg rat IgG2a (clone 2A3), both from Bioxcell) on day 3, 6 and 9 after tumor cell implantation. For adoptive cell transfer experiments, Pmel-1 Thy-1.1^+Thy-1.1^+, Cxcr3^−/− Thy-1.1^+Thy-1.2^+ Pmel-1 or OT1 splenocytes were activated ex-vivo, by incubation with 1 nM of human gp100 (for Pmel-1 cells) or […] (for OT1 cells) peptides for 1h at room temperature with agitation. Splenocytes were then washed and resuspended in R10 supplemented with 30U/mL of recombinant human IL-2. CD8^+ T cells were expanded for 6-7 days before used. For analysis of tumor infiltrates, activated Cxcr3^+/+ Thy-1.1^+Thy-1.1^+ and Cxcr3^−/− Thy-1.1^+Thy-1.2^+ transgenic Pmel-1 CD8^+ T cells were mixed in a 1:1 ratio (total 1×10^6 cells) and injected intravenously into gender matched tumor-bearing mice (3 days after tumor cell injection). For analysis of tumor growth, activated OT1 cells were injected intravenously (1×10^5 cells per mouse) into gender matched tumor-bearing mice, 3 days after tumor cell injection. Tumor height and width were measured with a caliper and tumor volume was calculated (Elliptical volume=width^2×height×0.523). The model of metastatic melanoma was achieved by intravenous injection of 2×10^5 B16 tumor cells. 15 days after tumor cell injection, lungs were dissected, placed in Fekete's solution and metastatic foci were counted. Lungs with more than 100 metastatic nodules were defined as 100.
Fluorochrome-conjugated anti-mouse CD3 (clone145-2C11), CD8 (clone 53-6.7), CD4 (clone RM4-5), NK1.1 (clone PK136), CD49b (clone DX5), CD25 (clone PC61), B220 (clone RA3-6B2), Ly6G (clone 1A8), Ly6C (clone AL-21), CD11 b (clone M1/70) Siglec-F (clone E50-2440), MHCII IA-IE (clone M5/114.15.2), CD45.2 (clones 56-0454-82 and 109830), Thy-1.1 (clone HIS51), Thy-1.2 (clone 53-2.1), DPP4 (clone H194-112) and CXCR3 (clone CXCR3-173) were from eBiosciences and BD Biosciences. Fluorochrome conjugated anti-F4/80 (clone CI:A3-1) was from AbDserotec. For exclusion of dead cells, Live/Dead fixable Aqua reagent (Invitrogen) was used. For all staining protocols, cell suspensions were incubated with mouse CD16/CD32 Fc Blocking antibodies (BD Biosciences) prior to antibody. […]

[2] = tested on: M04 (B16F10 transfected with OVA); assay: B16-OVA (M04) tumor growth with OT1 adoptive T cell transfer; assay type: in vivo, mouse
Procedure: B16F10 and M04 (Ovalbumin-expressing B16F10 cells, gift from C. Reis e Sousa) tumor cells were cultured in DMEM (Gibco) supplemented with 10% FCS (PAA), 0.1 mM non-essential amino acids, 1 mM sodium pyruvate, 10 mM Hepes, 70 μM beta-mercaptoethanol and 23 μg/ml gentamycin (all from Gibco). CT26 colon carcinoma cells were cultured in RPMI (Gibco) supplemented as described for DMEM. Cells for injections were passaged 1-2 times after thawing, before use. WT and genetically modified mice were subcutaneously injected with 2×10^5 B16 or 5×10^5 CT26 cells in the shaved right flank. When indicated, mice received an intra-tumoral injection of 1 μg of recombinant mCXCL10, 5 μg CpG-A in DOPTAP or vehicle control. […] Tumor height and width were measured with a caliper and tumor volume was calculated (Elliptical volume=width^2×height×0.523). […] 15 days after tumor cell injection, lungs were dissected, placed in Fekete's solution and metastatic foci were counted. […]

[3] = B16F10 tumors, sitagliptin vs control

## N[C@@H](CC(=O)N1CCn2c(nnc2C(F)(F)F)C1)Cc1cc(F)c(F)cc1F [sitagliptin]
[1]; [3]
  number of CD4+ and CD8+ T cells localized to the tumors: significant increase
  number of tumor-infiltrating myeloid cells, NK cells, B lymphocytes or CD25hi regulatory T cells: no significant differences
[1]; adoptive transfer, 12-14 hr after intratumoral mCXCL10
  CXCL10-mediated trafficking of Pmel-1 cells into B16F10 tumors: enhanced
[1]; day 7 B16F10 tumors, 12-14 h after injection
  lymphocyte recruitment into the tumor parenchyma after intratumoral mCXCL10: enhanced CXCL10 recruitment of T cells and NK cells
[1]; day 7 B16F10 tumors, sitagliptin vs control
  trafficking of B cells, regulatory T cells, eosinophils or neutrophils into tumors after intratumoral mCXCL10: unchanged
[2]; B16-OVA tumors, day 15
  reduction in tumor size: ~50%
[2]; monotherapies vs control
  B16-OVA tumor growth: significant delay
